Results: US7692012B2, “Vanadium compounds as inhibitors of phosphatases” (Imperial College Innovations Limited, priority 2003, dated 2010)
Like-named read-outs stand apart in the source and are kept apart here.

Legend:
[1] = target: T1, PTEN (Mus musculus, UniProt O08586); assay: PTEN preliminary data (western blots); format: cell-based
T1 construct: endogenous in cells; host or cells: NIH3T3
Method: (§1) UM-UC-3 cells were treated in exactly the same manner. Cell samples were analysed on Western Blots with PKB antibodies.
(§2) All cell lysate samples were loaded on 10% SDS-PAGE and transferred to PVDF membranes for PKB analysis and nitrocellulose for phospho tyrosine detection. For PKB Western Blots membranes were blocked for 1 h with 5% milk powder in TBST followed by an incubation with anti Mass PKB antibody (1:1000) or anti phospho-PKB (Ser473) antibody (1:1000) in TBST for 2 h. Finally, membranes were exposed to a horseradish peroxidase-conjugated secondary antiserum (BIORAD) (1:1000) in 5% milk powder solution for 1 h. The Western Blots were developed with ECL™ solution (Amersham). In order to detect phosphorylated tyrosine residues nitrocellulose membranes were blocked for 1 h with 2.5% milk powder, first incubated with a specific anti phosphotyrosine antibody (4G10) (1:3000) for 1 h, and finally with horseradish peroxidase-conjugated secondary anti mouse antiserum. All PKB and Phospho-Tyrosine experiments were accomplished in three independent experiments and all membranes were re-probed using a specific tubulin antibody (1:1000). Density analysis of bands took place using the public domain NIH Image V1.62 program (developed at the U.S. National Institutes of Health and available on the Internet at http://rsb.info.nih.gov/nih-image/).

[2] = test system: phosphorylation of tyrosine residues in NIH3T3 cells; assay: Phosphotyrosine assay with NIH3T3 cells; format: cell-based; settings: 15 min
Method: NIH3T3 cells were grown and starved as described earlier. After 72 h starvation cells were incubated for 15 min with 10% NCS, 50, 10 and […] insulin (Sigma), 10, 1, 0.1 and 0.01 μM bpV(pic) and bpV(phen), respectively. Cell lysates were prepared as described above and all samples were analysed on Western Blots using an anti phospho-tyrosine antibody (Upstate).
as §2

[3] = target: T2, PTEN (Homo sapiens, UniProt P60484); assay: Malachite green phosphate release assay with PI(3,4,5)P3; format: biochemical; settings: for IC50: head says published data, same values as the applicant's FIG. 1 study, read-out: PTEN Published data In vitro enzyme assay confirmed by in vivo data; for specificity of phosphatase inhibition: PTEN versus SopB, MTM, PTP; for PTEN inhibition, summary in words: comment below PTEN table
T2 construct: GST (N); made in house; host or cells: Escherichia coli DH5 alpha
T2 sequence (P60484 whole entry): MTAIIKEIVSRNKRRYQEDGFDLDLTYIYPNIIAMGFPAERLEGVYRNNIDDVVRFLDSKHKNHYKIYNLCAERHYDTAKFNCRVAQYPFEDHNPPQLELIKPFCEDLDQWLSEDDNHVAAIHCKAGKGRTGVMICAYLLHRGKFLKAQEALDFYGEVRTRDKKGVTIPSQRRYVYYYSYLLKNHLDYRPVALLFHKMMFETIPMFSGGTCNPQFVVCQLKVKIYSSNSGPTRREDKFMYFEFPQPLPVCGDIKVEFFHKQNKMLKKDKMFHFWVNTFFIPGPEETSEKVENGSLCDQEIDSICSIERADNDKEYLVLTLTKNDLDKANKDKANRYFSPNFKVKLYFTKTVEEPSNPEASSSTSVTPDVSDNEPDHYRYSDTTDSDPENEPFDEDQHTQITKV
Method: The coding region of the DNA sequence of human PTEN was cloned into a pGEX-4T2 expression vector (Pharmacia). Protein expression was induced overnight in the Escherichia coli DH5[…] strain using 100 μM IPTG at 18 C. GST-fusion proteins were purified according to the manufacturer's manual using glutathione sepharose 4B (Pharmacia). Protein integrity and specificity were confirmed on a Western Blot using GST antibody (Novagen).
Enzyme activity of recombinant PTEN was measured with a malachite green dye based phosphate release assay (No 230, No 83). The standard assay conditions were 200 mM Tris pH 7.4, 50 ng/μl BSA, and 15 ng/μl PTEN. The synthetic lipid PI(3,4,5)P3dC16 (Cell Signals) was used as a substrate for PTEN. The lipid was dissolved in methanol/H2O and stored at −20 C. Prior to the use in these PIPase experiments, an appropriate amount of lipid was dried down and resuspended in 1% Octylglycoside (Sigma). After 10 min of sonication lipid samples were ready to be added to the enzyme assay. All assays were started by adding the enzyme into the pre-heated buffer solution, containing PI(3,4,5)P3dC16. Linear PIPase reactions were performed at 30 C for 30 min in an incubation chamber. In order to stop the enzyme reaction, 0.7 volume of colour reagent (2.3 mg/ml malachite green in 3.6 M HCl and 17 mM ammonium molybdate) was added to the enzyme solution. The mixture was allowed to develop for 20 min and the absorbance at 625 nm was measured. For all inhibitor studies inhibitor concentrations from 0.1 nM up to 500 nM were pre-incubated with PTEN and the enzyme assays were started by adding 150 μM sonicated lipid. To normalize the phosphate release a phosphate standard curve was used. All experiments were repeated in tripletts. Calculations for IC50 values were performed using GraphPad Prism.

[4] = target: SopB (Salmonella typhimurium, UniProt O30916); assay: biochemical; format: biochemical
Chain of SopB (O30916 whole entry): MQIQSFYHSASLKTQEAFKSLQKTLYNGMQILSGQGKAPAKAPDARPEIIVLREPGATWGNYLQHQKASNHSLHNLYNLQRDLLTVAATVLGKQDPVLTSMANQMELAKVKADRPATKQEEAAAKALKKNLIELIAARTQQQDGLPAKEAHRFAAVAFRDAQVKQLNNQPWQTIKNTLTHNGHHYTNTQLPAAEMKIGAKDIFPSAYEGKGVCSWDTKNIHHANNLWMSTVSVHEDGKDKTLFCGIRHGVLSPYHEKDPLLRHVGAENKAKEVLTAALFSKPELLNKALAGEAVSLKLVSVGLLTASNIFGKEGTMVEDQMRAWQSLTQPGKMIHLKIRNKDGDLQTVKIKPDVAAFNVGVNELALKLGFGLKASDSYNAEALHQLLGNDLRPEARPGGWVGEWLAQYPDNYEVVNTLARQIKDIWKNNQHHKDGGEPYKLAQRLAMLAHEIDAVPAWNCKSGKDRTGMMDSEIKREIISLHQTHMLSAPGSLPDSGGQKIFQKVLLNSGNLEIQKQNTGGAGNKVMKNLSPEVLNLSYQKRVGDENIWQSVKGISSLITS

[5] = test system: NIH3T3 cells; assay: Phalloidin staining (actin re-arrangement, morphology); format: cell-based; settings: 0.1 μM, 6 h and 24 h
Method: In order to monitor morphological changes NIH3T3 cells were grown on 8-well chamber slides and incubated with concentrations of bpV(pic) and bpV(phen) between 0.1 and 10 μM for 6 h and 24 h, respectively. Fibroblasts were fixed with 4% para-formaldehyde (PFA), permeabilised with 0.2% Triton and blocked with 10% NCS (newborn calf serum). To stain actin filaments cells were incubated with TRITC-phalloidin (Sigma) (1:1000) for 1 h. Finally, nuclei were DAPI (Sigma) stained and mounted. Morphological analyses were assessed on a microscope using filters for TRITC and DAPI and pictures were captured using a camera.

[6] = target: T3, MTM (Homo sapiens, UniProt Q13496); assay: MTM IC50 (inositol phosphatase inhibition); format: biochemical
T3 sequence (Q13496 1-603): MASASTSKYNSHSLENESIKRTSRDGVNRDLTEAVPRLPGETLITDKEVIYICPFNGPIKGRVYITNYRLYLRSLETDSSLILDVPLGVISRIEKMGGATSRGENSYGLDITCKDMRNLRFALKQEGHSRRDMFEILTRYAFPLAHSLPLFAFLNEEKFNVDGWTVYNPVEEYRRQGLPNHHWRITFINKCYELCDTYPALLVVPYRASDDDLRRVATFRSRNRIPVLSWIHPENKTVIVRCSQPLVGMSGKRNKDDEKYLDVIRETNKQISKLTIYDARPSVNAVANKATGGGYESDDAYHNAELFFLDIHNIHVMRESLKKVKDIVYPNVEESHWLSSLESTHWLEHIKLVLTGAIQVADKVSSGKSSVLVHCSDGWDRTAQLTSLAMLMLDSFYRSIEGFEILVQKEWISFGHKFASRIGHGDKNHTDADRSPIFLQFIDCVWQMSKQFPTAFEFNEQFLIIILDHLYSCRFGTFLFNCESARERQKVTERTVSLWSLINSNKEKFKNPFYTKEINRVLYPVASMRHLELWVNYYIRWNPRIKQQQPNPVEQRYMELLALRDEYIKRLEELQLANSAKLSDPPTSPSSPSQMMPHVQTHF

[7] = test system: PKB phosphorylation (pSer473) in NIH3T3 cells; assay: PKB assay: activation of insulin signalling pathway (insulin mimetic property), NIH3T3; format: cell-based; settings: NIH3T3, 1 μM, 15 min, no insulin
Method: (§3) NIH3T3 cells (passage 5-20) were grown in 10% NCS D-MEM (GIBCO BRL) in 6-well plates at 37 C and 5% CO2. Starvation of the cells was carried out over 72 h in D-MEM containing 0.5% NCS. Prior use medium was changed to 0% D-MEM. UM-UC-3 cells which is a PTEN^− bladder tumour cell line (NO 195, No 196) were grown in 10% MEM (GIBCO BRL), starved with 0.5% MEM also for three days and finally incubated with serum free MEM.
Cells were washed once with PBS and lysed using 80 μl SDS-PAGE buffer (250 mM Tris pH 6.8, 20% glycerol, 4% SDS, 0.01% bromphenol blue, 50 mM mercaptoethanol). Samples were boiled for 15 min and stored at −20 C until analysis on Western Blots as described in the last paragraph.
as §2

[8] = target: T4, PTP-β (Homo sapiens, UniProt P23467); assay: PTPase assay with pNPP as substrate; format: biochemical
T4 construct: purchased Upstate Biotechnology
T4 sequence (P23467 23-1997): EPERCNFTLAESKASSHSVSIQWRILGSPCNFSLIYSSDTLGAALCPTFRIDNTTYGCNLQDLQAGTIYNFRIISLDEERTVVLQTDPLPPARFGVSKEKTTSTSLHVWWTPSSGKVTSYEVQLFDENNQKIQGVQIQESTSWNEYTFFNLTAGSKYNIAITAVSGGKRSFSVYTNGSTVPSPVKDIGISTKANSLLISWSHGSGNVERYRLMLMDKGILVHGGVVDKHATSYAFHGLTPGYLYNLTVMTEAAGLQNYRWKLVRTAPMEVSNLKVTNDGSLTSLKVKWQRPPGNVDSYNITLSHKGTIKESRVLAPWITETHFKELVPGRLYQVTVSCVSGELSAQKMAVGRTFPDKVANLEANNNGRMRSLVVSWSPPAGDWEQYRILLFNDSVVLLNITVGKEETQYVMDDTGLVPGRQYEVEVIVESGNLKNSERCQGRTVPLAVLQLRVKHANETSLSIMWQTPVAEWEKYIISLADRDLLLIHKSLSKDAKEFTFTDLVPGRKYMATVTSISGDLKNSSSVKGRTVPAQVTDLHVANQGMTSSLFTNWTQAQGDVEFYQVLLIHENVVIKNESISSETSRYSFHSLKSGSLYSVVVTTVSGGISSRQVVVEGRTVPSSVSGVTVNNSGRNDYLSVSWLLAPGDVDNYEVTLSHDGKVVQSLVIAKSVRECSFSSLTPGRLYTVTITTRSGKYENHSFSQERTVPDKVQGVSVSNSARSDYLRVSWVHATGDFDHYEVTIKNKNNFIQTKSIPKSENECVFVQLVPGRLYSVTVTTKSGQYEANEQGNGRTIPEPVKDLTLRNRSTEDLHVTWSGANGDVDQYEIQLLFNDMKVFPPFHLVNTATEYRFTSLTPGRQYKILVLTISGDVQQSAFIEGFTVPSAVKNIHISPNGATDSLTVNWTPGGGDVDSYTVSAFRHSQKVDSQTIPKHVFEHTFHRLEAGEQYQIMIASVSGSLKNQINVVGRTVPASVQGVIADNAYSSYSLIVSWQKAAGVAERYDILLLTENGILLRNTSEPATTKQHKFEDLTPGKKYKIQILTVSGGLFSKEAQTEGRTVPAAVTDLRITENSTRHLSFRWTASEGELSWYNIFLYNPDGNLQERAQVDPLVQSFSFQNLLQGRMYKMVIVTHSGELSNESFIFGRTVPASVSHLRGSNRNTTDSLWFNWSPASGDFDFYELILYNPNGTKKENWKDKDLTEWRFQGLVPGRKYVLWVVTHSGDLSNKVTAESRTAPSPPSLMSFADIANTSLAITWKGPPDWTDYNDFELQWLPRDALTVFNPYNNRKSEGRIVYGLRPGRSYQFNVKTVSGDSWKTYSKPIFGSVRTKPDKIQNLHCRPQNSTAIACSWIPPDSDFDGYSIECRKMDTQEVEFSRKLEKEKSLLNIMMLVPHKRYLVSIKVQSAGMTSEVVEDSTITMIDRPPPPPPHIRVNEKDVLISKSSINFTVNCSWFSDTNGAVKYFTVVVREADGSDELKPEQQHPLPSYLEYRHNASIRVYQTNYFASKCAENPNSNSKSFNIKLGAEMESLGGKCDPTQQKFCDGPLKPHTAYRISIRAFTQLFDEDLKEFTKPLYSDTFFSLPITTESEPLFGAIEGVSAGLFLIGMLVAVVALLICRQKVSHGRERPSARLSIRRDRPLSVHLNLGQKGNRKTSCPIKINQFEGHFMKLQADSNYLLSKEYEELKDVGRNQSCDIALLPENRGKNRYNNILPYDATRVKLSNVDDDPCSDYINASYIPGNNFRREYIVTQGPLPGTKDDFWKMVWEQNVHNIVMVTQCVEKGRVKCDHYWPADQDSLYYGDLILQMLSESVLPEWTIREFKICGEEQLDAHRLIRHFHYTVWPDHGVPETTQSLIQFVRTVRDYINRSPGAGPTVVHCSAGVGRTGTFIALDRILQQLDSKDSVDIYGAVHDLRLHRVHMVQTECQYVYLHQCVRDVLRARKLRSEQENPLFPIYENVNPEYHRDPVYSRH
Method: Protein tyrosine phosphatase (PTPase) assays were performed using the synthetic substrate p-nitrophenylphosphate (pNPP) and the phosphatases PTP-1B and PTP-β (Upstate Biotechnology). The standard assay conditions were 25 mM HEPES pH 7.2, 50 mM NaCl, 5 mM DTT, 2.5 mM EDTA, 100 μg/ml BSA, 1 mM pNPP (Sigma) and 4 unit PTP-1B and 10 unit PTP-β, respectively. The assay was started by adding the enzyme and was carried out for 15 min at 30 C in a preheated ELISA reader chamber. The linear increase of absorbance was monitored every 30 seconds at a wavelength of 410 nm.

[9] = target: T1, PTEN; assay: PKB assay: dose dependence of PTEN inhibition in insulin-stimulated NIH3T3 cells (pSer473 Western blot); format: cell-based; settings: for increase of PKB phosphorylation in comparison with the control: 20 nM compound, control 0.5 μg/ml insulin; for IC50: NIH3T3, 5 min compound then 0.5 μg/ml insulin 15 min, read-out: IC50 (in vivo PTEN inhibition, densitometry of pSer473 PKB)
Method: as §3, §1, §2

[10] = test system: PKB phosphorylation (Ser473) in NIH3T3 cells; assay: PKB assay in the presence of PI3K inhibitor Ly294002 and mTOR inhibitor rapamycin; format: cell-based
Method: In order to study the influence of PI3K and mTOR on the bpV-dependent insulin mimetic feature we treated NIH3T3 cells with 10 μM LY294002 (Promega) and 50 nM rapamycin (Calbiochem) for 20 min and 30 min, respectively, followed by an incubation with 10 μM or 1 μM bpv(pic) for 15 min. Cell lysates were analysed on PKB Western Blots.
as §2

[11] = test system: PKB phosphorylation (pSer473) in NIH3T3 cells; assay: Ly294002 dose dependence with and without bpV(pic); format: cell-based
Method: In order to find out whether bpV(pic) has an influence on Ly294002-dependent PKB inhibition we accomplished a dose response experiment applying concentrations from 0.01 up to 100 μM Ly294002 to two sets of quiescent fibroblasts and incubated for 20 min. One batch of cells were then further treated with 200 nM bpV(pic) (5 min) and all cells were finally stimulated with 10 μg/ml insulin for 15 min. Cell lysates were collected as described earlier. Calculations and graph were performed using GraphPad Prism.
as §2

[12] = +V compound, read-out: IC50 SopB
[13] = +IV compound, read-out: IC50 SopB

T1 sequence (O08586 whole entry): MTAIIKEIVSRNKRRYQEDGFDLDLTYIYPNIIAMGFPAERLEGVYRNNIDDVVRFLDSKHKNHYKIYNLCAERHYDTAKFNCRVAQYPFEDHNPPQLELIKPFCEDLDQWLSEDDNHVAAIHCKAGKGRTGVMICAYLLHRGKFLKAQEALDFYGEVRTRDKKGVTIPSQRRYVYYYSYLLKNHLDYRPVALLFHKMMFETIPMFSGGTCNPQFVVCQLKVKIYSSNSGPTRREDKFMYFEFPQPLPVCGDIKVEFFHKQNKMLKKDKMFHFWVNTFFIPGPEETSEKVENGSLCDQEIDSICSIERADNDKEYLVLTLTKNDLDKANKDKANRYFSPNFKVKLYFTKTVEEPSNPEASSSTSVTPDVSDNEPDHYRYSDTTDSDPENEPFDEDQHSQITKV

O.O.O.OO.OO.[K+].[OH-].[V].c1cnc2c(c1)ccc1cccnc12 [bpV(phen), potassium bisperoxo(1,10-phenanthroline)oxovanadate]
IC50 [1]: 275 nM | tyrosine phosphorylation ([2]; 10 μM): lower stimulation | IC50 [3]: 38 ± 2.4 nM | IC50 [4, 12]: 102 nM | cellular morphology (actin staining) [5]: remained unchanged | IC50 ([6]; Compound(+V)): 407 ± 38.5 nM | phosphorylated PKB signal [7]: no phosphorylation was visible

O=C([O][V](=[O])[O]C(=O)c1ccc2ccccc2n1)c1ccc2ccccc2n1 [quinolin4]
IC50 ([8]; V(+IV) compounds): 212000 ± 9400 nM | IC50 [4]: 1960 ± 870 nM | IC50 ([6]; Compound(+IV)): 9260 ± 40 nM

dipotassium bisperoxo(phenylbiguanide)oxovanadate [pV(phenbig)]
IC50 [1]: 48.5 nM | specificity of phosphatase inhibition [3]: specifically inhibit PTEN, but not SopB, MTM or PTP | PTEN inhibition, summary in words [3]: very good inhibitors | IC50 [4, 12]: 798 ± 41 nM | IC50 ([6]; Compound(+V)): 1890 ± 830 nM

O=C([O-])c1ccccn1.O=C([O-])c1ccccn1.[O]=[V+2] [pic4]
IC50 ([8]; V(+IV) compounds): 589000 ± 32900 nM | IC50 [4, 13]: 125 ± 1.65 nM | IC50 ([6]; Compound(+IV)): 6350 ± 3920 nM

O=C([O-])c1nccc2ccccc12.[K+].[K+].[O-][O-].[O-][O-].[O]=[V+3] [pV(isoqu)]
IC50 [1]: 101 nM | IC50 ([8]; V(+V) compounds): 349000 ± 26500 nM | IC50 [4, 12]: 79.8 ± 9.7 nM | IC50 ([6]; Compound(+V)): 868 ± 187 nM

potassium bisperoxo (piconlinate) oxovanadate [bpV(pic)]
increase of PKB phosphorylation in comparison with the control [9]: about 20% | IC50 [9]: 48 nM | phosphorylation of Ser473 of PKB ([10]; 1 μM bpV(pic) after pre-incubation with 50 nM rapamycin): provoked phosphorylated Ser473 | phosphorylation of Ser473 of PKB ([10]; 1 μM bpV(pic) alone): no signal was visible | phosphorylation of Ser473 of PKB ([10]; 10 μM bpV(pic) after pre-incubation with 10 μM Ly294002): reduced phosphorylation rate | phosphorylation of Ser473 of PKB ([10]; 10 μM bpV(pic) alone): high degree of phosphorylation | effect on Ly294002 induced PKB inhibition ([11]; 200 nM bpV(pic), Ly294002 0.01 to 100 μM): can abrogate Ly294002 induced PKB inhibition | PKB phosphorylation at 5 μM Ly294002 ([11]; in the presence of 200 nM bpV(pic)): phosphorylation still occurs | tyrosine phosphorylation ([2]; 0.01 μM): not distinguishable to the negative control | tyrosine phosphorylation ([2]; 10 μM): highest degree of tyrosine phosphorylation | IC50 [3]: 31 ± 1.7 nM | cellular morphology (actin staining) [5]: remained unchanged | IC50 ([6]; Compound(+V)): 239 ± 4.2 nM | phosphorylated PKB signal [7]: weak signal

O=C([O-])c1ccc(O)cn1.[K+].[K+].[O-2].[O-][O-].[O-][O-].[V+5] [bpV(HOpic), dipotassium bisperoxo(5-hydroxypyridine-2-carboxyl)oxovanadatel]
increase of PKB phosphorylation in comparison with the control [9]: about 20% | IC50 [9]: 96 nM | IC50 [1]: 211 nM | specificity of phosphatase inhibition [3]: specifically inhibit PTEN, but not SopB, MTM or PTP | IC50 [3]: 14 ± 2.3 nM | IC50 [4, 12]: 33.2 ± 6.5 nM | IC50 ([6]; Compound(+V)): 346 ± 24.8 nM | phosphorylated PKB signal [7]: weak signal

O=C([O-])c1ncccc1O.O=C([O-])c1ncccc1O.[O]=[V+2] [OHpic4]
IC50 ([8]; V(+IV) compounds): 57500 ± 9400 nM | PTEN inhibition, summary in words [3]: very good inhibitors | IC50 [4, 13]: 588 ± 163 nM | IC50 ([6]; Compound(+IV)): 4030 ± 40 nM

[K+].[O-][O-].[O-][O-].[O]=[V+3].c1ccc(-c2ccccn2)nc1 [bpV(bipy), potassium bisperoxo (bipyridine) oxovanadate]
increase of PKB phosphorylation in comparison with the control [9]: about 20% | IC50 ([8]; aromatic bpVs, pNPP substrate): 60.3 nM | phosphorylated PKB signal [7]: weak signal

O=c1cc(N2CCOCC2)oc2c(-c3ccccc3)cccc12 [Ly294002, reference compound]
concentration sufficient to inhibit PKB activation completely ([11]; NIH3T3, 10 μg/ml insulin, without bpV(pic)): 5 µM
